Patent US8173771B2, “Humanin receptor or humanin-like polypeptide receptor” (Keio Univeristy, priority 2005, dated 2012)
Peptide text beside a SMILES is read from it.

Molecular target: T1, HN receptor (HNR; CNTF-R/WSX-1/gp130) on F11 cells (Mus musculus, UniProt O70394+O88507)
T1 construct: endogenous in cells; host or cells: F11 neurohybrid cells
T1 sequence (O70394 25-623): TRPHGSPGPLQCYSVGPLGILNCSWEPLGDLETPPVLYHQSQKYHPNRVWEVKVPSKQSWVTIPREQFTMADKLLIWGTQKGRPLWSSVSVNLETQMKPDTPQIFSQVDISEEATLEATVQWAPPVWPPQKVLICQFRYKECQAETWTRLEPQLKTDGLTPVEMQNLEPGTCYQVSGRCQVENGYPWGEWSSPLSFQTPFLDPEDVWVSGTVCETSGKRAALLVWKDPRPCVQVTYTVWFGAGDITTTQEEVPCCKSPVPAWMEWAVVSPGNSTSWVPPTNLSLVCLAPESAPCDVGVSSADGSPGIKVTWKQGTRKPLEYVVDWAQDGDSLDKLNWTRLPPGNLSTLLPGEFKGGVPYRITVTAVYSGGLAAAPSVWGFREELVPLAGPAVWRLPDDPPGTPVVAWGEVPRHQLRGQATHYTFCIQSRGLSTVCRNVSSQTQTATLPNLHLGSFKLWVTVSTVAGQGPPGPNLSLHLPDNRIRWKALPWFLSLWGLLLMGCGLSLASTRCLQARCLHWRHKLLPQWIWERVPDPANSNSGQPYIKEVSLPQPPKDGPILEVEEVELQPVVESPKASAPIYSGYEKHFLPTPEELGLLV
T1 sequence (O88507 23-342): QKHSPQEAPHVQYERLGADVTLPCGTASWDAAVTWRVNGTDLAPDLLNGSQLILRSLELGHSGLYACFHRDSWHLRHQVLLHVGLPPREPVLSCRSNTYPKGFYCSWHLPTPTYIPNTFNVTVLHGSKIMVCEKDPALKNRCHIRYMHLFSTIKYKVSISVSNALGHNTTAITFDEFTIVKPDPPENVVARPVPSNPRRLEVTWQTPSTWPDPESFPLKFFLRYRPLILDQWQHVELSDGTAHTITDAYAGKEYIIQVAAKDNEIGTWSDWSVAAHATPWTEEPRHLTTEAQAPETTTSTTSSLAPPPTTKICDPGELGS
T1 sequence (Q00560 23-917 partner): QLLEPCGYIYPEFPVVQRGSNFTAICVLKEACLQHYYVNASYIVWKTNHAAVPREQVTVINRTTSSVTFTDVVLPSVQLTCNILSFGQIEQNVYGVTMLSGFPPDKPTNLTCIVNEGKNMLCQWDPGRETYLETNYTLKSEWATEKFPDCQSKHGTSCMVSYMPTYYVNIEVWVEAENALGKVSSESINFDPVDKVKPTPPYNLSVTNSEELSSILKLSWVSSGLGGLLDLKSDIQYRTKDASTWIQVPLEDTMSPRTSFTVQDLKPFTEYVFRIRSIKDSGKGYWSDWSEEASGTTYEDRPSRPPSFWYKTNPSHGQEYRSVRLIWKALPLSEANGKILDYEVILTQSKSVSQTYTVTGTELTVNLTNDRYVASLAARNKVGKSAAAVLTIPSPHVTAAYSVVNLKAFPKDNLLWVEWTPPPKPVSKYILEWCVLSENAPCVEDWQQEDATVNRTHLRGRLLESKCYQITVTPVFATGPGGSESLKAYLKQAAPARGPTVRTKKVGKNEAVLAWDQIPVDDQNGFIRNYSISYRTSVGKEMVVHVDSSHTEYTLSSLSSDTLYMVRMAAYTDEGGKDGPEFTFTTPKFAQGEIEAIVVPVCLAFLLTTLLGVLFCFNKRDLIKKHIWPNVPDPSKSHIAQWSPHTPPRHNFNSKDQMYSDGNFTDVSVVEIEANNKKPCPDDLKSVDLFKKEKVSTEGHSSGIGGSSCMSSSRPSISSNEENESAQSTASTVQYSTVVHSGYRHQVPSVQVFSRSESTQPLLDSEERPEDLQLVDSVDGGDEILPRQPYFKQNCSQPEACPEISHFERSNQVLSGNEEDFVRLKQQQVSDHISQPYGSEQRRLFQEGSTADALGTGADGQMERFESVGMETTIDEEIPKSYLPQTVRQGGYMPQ
Assay: Immunofluorescence-based binding assay (2): biotin-HN / biotin-HNG binding to F11 cells
Method: A) F11 cells were seeded on 96-well plates coated with poly-L-lysine (7×10^3 cells/well). An indicated amount of biotin-HN or biotin-HNG was added to the cells with or without 10 μM of unlabelled HNG or HNA, followed by a binding assay based on immunofluorescence reaction (2) (left panels). On the other hand, F11 cells were transfected with 0.5 μg of pcDNA3.1/GS-human CNTF-R, pEF1/MycHis-human WSX-1, and 1.0 μg of pCAG-human gp130. At 24 hrs after the transfection, the cells were re-seeded on 96-well plates coated with poly-L-lysine (7×10^3 cells/well). After 36 hrs the re-seeding, an indicated amount of biotin-HN or biotin-HNG was added to the cells with or without 10 μM of unlabeled HNG or HNA, followed by a binding assay based on immunofluorescence reaction (2) (right panels).
B) F11 cells were transfected with 0.5 μg of pRNA-U1.6/Shuttle vector, pRNA-U6.1/Shuttle-WSX-1 siRNA, pRNA-U6.1/Shuttle-CNTF-R siRNA, both pRNA-U6.1/Shuttle-WSX-1 siRNA and pRNA-U6.1/Shuttle-CNTF-R siRNA (0.5 μg each), pRNA-U6.1/Shuttle-FPR2 siRNA or pRNA-U6.1/Shuttle-LIFR siRNA. The total amount of vectors was adjusted to be 1.0 μg by including a backbone vector. At 24 hrs after the transfection, an indicated amount of biotin-HNG was added with or without unlabeled HNG, followed by a binding assay based on immunofluorescence reaction (2) at 72 hrs after the transfection.
E) F11 cells on 6-well plate (7×10^4 cells/well) were transfected with 1.0 μg of pRNA-U6.1/Shuttle vector, pRNA-U6.1/Shuttle-Bax siRNA, or both pRNA-U6.1/Shuttle-WSX-1 siRNA and pRNA-U6.1/Shuttle-CNTF-R siRNA (0.5 μg each). At 72 hrs after the transfection, the cells were added with an indicated amount of biotin-HN with or without unlabeled HN or HNA (100 μM) and subjected to an HN-binding assay based on immunofluorescence.
F11 cells (7×10^4/well in 6-well plates) were replated into 96-well plates (7×10^3 cells/well) at 24 hrs after transfection with indicated amounts of the plasmids encoding mycHis-WSX or V5-CNTF-R, and with PCAG-human gp130 if required. At 36 hrs after transfection, the cells were added with biotin-labeled HN or HNG of indicated concentrations in the presence or the absence of HNG (S14G-HN) or HNA (C8A-HN) of indicated concentrations (Hashimoto et al., 2001 a). After 6 hrs incubation, they were fixed with 4% paraformaldehyde in PBS for 30 min. After washing with PBS, cells were stained with FITC-conjugated avidin (Molecularprobe, Eugene, Oreg., USA). Immunofluorescence intensity was measured (excitation=485 nm, emission=535 nm) with a spectrofluorometer (Wallac1420 ARVOsx Multi Label Counter). Immunohistochemical analysis was done with a laser-scanning, confocal microscope LSM (Carl Zeiss, Germany).

- concentration of saturation of binding (biotin-HNG, concentration-dependent binding): 10 nM
- binding to F11 cells (expression of FPR2 or LIFR decreased by siRNA): not be affected
- inhibition of binding by over-addition of unlabeled peptide (specificity of binding): almost completely inhibit
SMILES: CC[C@H](C)[C@H](NC(=O)[C@H](CCC(=O)O)NC(=O)CNC(=O)[C@@H](NC(=O)[C@H](CC(C)C)NC(=O)[C@H](CC(C)C)NC(=O)[C@H](CC(C)C)NC(=O)[C@H](CC(C)C)NC(=O)[C@H](CS)NC(=O)[C@H](CO)NC(=O)[C@H](Cc1ccccc1)NC(=O)CNC(=O)[C@H](CCCNC(=N)N)NC(=O)[C@@H]1CCCN1C(=O)[C@H](C)NC(=O)[C@@H](N)CCSC)[C@@H](C)O)C(=O)N[C@@H](CC(=O)O)C(=O)N[C@@H](CC(C)C)C(=O)N1CCC[C@H]1C(=O)N[C@H](C(=O)N[C@@H](CCCCN)C(=O)N[C@@H](CCCNC(=N)N)C(=O)N[C@@H](CCCNC(=N)N)C(=O)N[C@@H](C)C(=O)O)C(C)C [HNG, S14 G-Humanin] (H-MAPRGFSCLLLLTGEIDLPVKRRA-OH; N-terminus and C-terminus assumed)
